{
  "source": "paper PMC4110944",
  "about": "“Probing SH2-domains using Inhibitor Affinity Purification (IAP)” (Proteome Science, 2014)",
  "key": {"regulatory PI3K subunits": {"tested_on": "regulatory PI3K subunits", "test": "Dose response competition pull-down with free compound 1 against immobilized probe 1 in Colo205 lysate", "format": "binding, human", "conditions": "Colo205 lysates, competition with immobilized probe 1; read-out: IC50 values for the captured regulatory PI3K subunits", "experimental": "(§1) A competitive binding experiment was performed to validate the results obtained under pervanadate-depletion conditions (Additional file 4). Dose response pull-down experiments were accomplished in Colo205 lysates with increasing concentrations of the free compound 1 that competes with the immobilized probe 1 for SH2 domain binding (Additional file 5). […] Additionally, these findings underscore the results of the pervanadate depletion experiments that indicate that the regulatory PI3 kinase subunits specifically interact with probe 1 via an SH2 domain. The regulatory PI3K subunits PI3KR1 and PI3KR2 contain a C-terminal and an N-terminal SH2 domain. The real IC50 values are likely smaller than the measured values for PI3KR1 and PI3KR2, since it is impossible to distinguish whether one of the two domains or both simultaneously interact with equal affinity with probe 1[35].\n(§2) SH2 probe pulldowns were performed as described previously. […]"}, "tubulin beta chain (TBB)": {"target": "T1, tubulin beta chain (TBB) (Homo sapiens, UniProt P07437)", "T1 construct": "Dose response pull-down experiments were accomplished in Colo205 lysates; endogenous in cells; host or cells: Colo205 cell lysate", "test": "Dose response competition pull-down in Colo205 lysate", "format": "binding", "conditions": "increasing free compound 1", "experimental": "as §1, §2"}, "PIK3R2": {"target": "T2, PIK3R2 (Homo sapiens, UniProt O00459)", "T2 construct": "Dose response pull-down experiments were accomplished in Colo205 lysates; endogenous in cells; host or cells: Colo205 cell lysate", "test": "Dose response competition pull-down with free compound 1 against immobilized probe 1 in Colo205 lysate", "format": "binding", "conditions": "Colo205 cell lysate, free compound 1 competing with immobilized probe 1", "experimental": "as §1\n(§3) Figure 5 Dose-response curves. Pulldown experiments were conducted using probe 1 with Colo205 cell lysate and increasing concentrations of the free compound 1.\nas §2\n(§4) Raw MS data were processed by MaxQuant (v1.4.0.5) for peak detection and quantification […]"}, "PIK3R1": {"target": "T3, PIK3R1 (Homo sapiens, UniProt P27986)", "T3 construct": "Dose response pull-down experiments were accomplished in Colo205 lysates; endogenous in cells; host or cells: Colo205 cell lysate", "test": "Dose response competition pull-down with free compound 1 against immobilized probe 1 in Colo205 lysate", "format": "binding", "conditions": "Colo205 cell lysate, free compound 1 competing with immobilized probe 1", "experimental": "as §1, §3, §2, §4"}, "SH2 proteins": {"tested_on": "SH2 proteins", "test": "Dose response competition pull-down in Colo205 lysate", "format": "binding, human", "conditions": "increasing free compound 1", "experimental": "as §1, §2"}},
  "data": [
    {"smiles": "CCCCCN(CCOCCOCCN)C(=O)[C@H](CCC(=O)O)NC(=O)[C@H](Cc1ccc(C(F)(F)P(=O)(O)O)cc1)NC(C)=O", "note": "[probe 1]", "values": [
      {"measurement": "IC50", "setting": "regulatory PI3K subunits", "result": "10 to 23", "unit": "µM"},
      {"measurement": "dose dependence of tubulin beta chain (TBB) in the competition experiment", "setting": "tubulin beta chain (TBB)", "result": "do not show dose dependent decrease"},
      {"measurement": "IC50", "setting": "PIK3R2", "result": 22.6, "unit": "µM"},
      {"measurement": "IC50", "setting": "PIK3R1", "result": 10.3, "unit": "µM"},
      {"measurement": "dose dependence of captured SH2 proteins in the competition experiment", "setting": "SH2 proteins", "result": "dose dependent decrease"}
    ]}
  ]
}
